Earlier results, collected in patent US20240423911A1, “EMULSION COMPOSITION” (AstaReal Co., Ltd., priority 2018, published 2024).

Legend:
[1] = Takahashi et al. 2004

In the case of `CC1=C(/C=C/C(C)=C/C=C/C(C)=C/C=C/C=C(C)/C=C/C=C(C)/C=C/C2=C(C)C(=O)C(O)CC2(C)C)C(C)(C)CC(O)C1=O` (stereo not drawn) [Astaxanthin, 3,3′-dihydroxy-β,β-carotene-4,4′-dione], the “antioxidative activity relative to vitamin E” value (higher than that of vitamin E) is listed as “approximately 1000 times”, the “antioxidative activity relative to β-carotene” value (higher than that of β-carotene) is listed as about 40 times and the mutagenicity [1] is listed as “no mutagenicity has been observed”.
